From ChEMBL document CHEMBL1649272, “Unbound cephalothin pharmacokinetics in adult burn patients are related to the elapsed time after injury” (Antimicrob Agents Chemother, 2009)

What was measured:
[1] = Mean residence time in patient with severe burns at 1 g, iv; format: ADME, organism-based; conditions: human, in vivo
[2] = Plasma protein binding in healthy human at 1 g, iv; format: ADME, cell-free; conditions: read-out: PPB (converted)
[3] = Cmax in patient with severe burns at 1 g, iv; format: ADME, organism-based; design: dose 1 g, route intravenous; conditions: human, in vivo
[4] = Mean residence time in healthy human at 1 g, iv; format: ADME, organism-based; conditions: in vivo
[5] = Renal clearance in patient with severe burns at 1 g, iv; format: ADME, organism-based, Kidney; conditions: human, in vivo, read-out: CL_renal
[6] = Renal clearance in healthy human at 1 g, iv; format: ADME, organism-based, Kidney; conditions: in vivo, read-out: CL_renal
[7] = Volume of distribution at steady state in patient with severe burns at 1 g, iv; format: ADME, organism-based; conditions: human, in vivo, read-out: Vdss
[8] = Plasma protein binding in patient with severe burns at 1 g, iv; format: ADME, cell-free; conditions: human, read-out: PPB (converted)
[9] = Half life in healthy human at 1 g, iv; format: ADME, organism-based; conditions: in vivo
[10] = Terminal half life in healthy human at 1 g, iv; format: ADME, organism-based; conditions: in vivo, read-out: beta t1/2 (converted)
Homo sapiens [11] = test: AUC (0 to infinity) in patient with severe burns at 1 g, iv; format: ADME, organism-based, Plasma; design: dose 1 g, time infinity, route intravenous; conditions: in vivo
[12] = Half life in patient with severe burns at 1 g, iv; format: ADME, organism-based; conditions: human, in vivo
[13] = Terminal half life in patient with severe burns at 1 g, iv; format: ADME, organism-based; conditions: human, in vivo, read-out: beta t1/2 (converted)
Homo sapiens [14] = test: Clearance in patient with severe burns at 1 g, iv; conditions: in vivo
[15] = Cmax in healthy human at 1 g, iv; format: ADME, organism-based; design: dose 1 g, route intravenous; conditions: in vivo
Homo sapiens [16] = test: Clearance in healthy human at 1 g, iv; conditions: in vivo
Homo sapiens [17] = test: AUC (0 to infinity) in healthy human at 1 g, iv; format: ADME, organism-based, Plasma; design: dose 1 g, time infinity, route intravenous; conditions: in vivo
[18] = Volume of distribution at steady state in healthy human at 1 g, iv; format: ADME, organism-based; conditions: in vivo, read-out: Vdss

SMILES: CC(=O)OCC1=C(C(=O)O)N2C(=O)[C@@H](NC(=O)Cc3cccs3)[C@H]2SC1 [CEPHALOTHIN]
- MRT [1]: 35.4 min
- fraction unbound [2]: 0.29
- Cmax [3]: 38.7 µg/mL
- MRT [4]: 22.8 min
- CL renal [5]: 148 mL/min
- CL renal [6]: 98 mL/min
- Vd [7]: 0.63 L/kg
- fraction unbound [8]: 0.41
- half-life [9]: 15.6 min
- half-life [10]: 44.4 min
- AUC (Homo sapiens [11]): 12.1 µg·h/mL
- half-life [12]: 24.6 min
- half-life [13]: 54.6 min
- CL (Homo sapiens [14]): 1.19 L/h/kg
- Cmax [15]: 21.3 µg/mL
- CL (Homo sapiens [16]): 1.58 L/h/kg
- AUC (Homo sapiens [17]): 9.89 µg·h/mL
- Vd [18]: 0.6 L/kg
